Tests used:
Adenosine receptor A2b [1] = target: T1, Adenosine receptor A2b (Homo sapiens, UniProt P29275)
T1 sequence (P29275 whole entry): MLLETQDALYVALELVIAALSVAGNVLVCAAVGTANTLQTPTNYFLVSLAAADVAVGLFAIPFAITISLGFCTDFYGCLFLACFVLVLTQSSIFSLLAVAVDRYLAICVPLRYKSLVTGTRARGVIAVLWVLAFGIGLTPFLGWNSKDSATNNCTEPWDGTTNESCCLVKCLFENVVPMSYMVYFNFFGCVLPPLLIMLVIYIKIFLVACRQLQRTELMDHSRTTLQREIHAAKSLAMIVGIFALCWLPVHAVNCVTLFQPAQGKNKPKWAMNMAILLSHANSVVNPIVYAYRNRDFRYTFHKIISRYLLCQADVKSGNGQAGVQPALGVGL

Adenosine receptor A2a [2] = target: T2, Adenosine receptor A2a (Homo sapiens, UniProt P29274); assay: biochemical
Description: Binding affinity for adenosine A2a receptor by using as [3H]ZM-241385 (2 nM) radioligand in membranes from HEK-A2A cells

Adenosine receptor A1 = target: T3, Adenosine receptor A1 (Homo sapiens, UniProt P30542); assay: biochemical
T3 sequence (P30542 whole entry): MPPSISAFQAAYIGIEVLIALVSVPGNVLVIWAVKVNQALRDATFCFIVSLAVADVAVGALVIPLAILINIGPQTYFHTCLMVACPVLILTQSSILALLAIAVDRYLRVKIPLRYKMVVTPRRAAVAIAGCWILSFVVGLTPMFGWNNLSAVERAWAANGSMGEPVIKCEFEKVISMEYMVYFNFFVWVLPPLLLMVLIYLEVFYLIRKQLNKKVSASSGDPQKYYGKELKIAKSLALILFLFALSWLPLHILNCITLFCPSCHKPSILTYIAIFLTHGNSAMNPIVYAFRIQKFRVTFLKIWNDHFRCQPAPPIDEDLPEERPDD

Adenosine receptor A2b [3] = target: T1, Adenosine receptor A2b; assay: Binding affinity for adenosine A2b receptor by using as [3H]ZM-241385 radioligand in membranes from HEK-A2B cells
Adenosine receptor A2b [4] = target: T1, Adenosine receptor A2b; assay: Binding affinity against Adenosine A2b receptor labeled by [3H]ZM-241385 in membranes prepared from HEK-A2B cells
Adenosine receptor A2a [5] = target: T2, Adenosine receptor A2a; assay: biochemical; remark: listed apart in the source
Description: Binding affinity against Adenosine A2a receptor labeled by [3H]ZM-241385 in membranes prepared from HEK-A2A cells

T2 sequence (P29274 whole entry): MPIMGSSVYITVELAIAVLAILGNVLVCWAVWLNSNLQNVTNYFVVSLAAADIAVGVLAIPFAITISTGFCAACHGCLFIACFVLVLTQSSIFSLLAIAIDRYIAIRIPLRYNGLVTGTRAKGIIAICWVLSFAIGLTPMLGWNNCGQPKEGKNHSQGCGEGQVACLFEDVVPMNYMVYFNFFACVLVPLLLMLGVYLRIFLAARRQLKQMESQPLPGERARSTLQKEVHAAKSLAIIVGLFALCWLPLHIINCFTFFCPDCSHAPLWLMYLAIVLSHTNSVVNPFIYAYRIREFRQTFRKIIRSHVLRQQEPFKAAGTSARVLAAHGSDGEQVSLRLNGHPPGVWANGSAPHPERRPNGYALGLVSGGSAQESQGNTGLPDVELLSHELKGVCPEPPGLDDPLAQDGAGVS

Ki (Adenosine receptor A2b [1]) | Ki (Adenosine receptor A2a [2]) | Ki (Adenosine receptor A1) | Ki (Adenosine receptor A2b [3]) | SMILES | Ki (Adenosine receptor A2b [4]) | Ki (Adenosine receptor A2a [5])
1830 nM | > 5000 nM | > 6000 nM |  | CCCn1c(=O)c2nc(-c3ccc(OCc4nc(-c5ccccc5Cl)no4)cc3)[nH]c2n(CCC)c1=O |  | 
215 nM | > 5000 nM | 1830 nM | 215 nM | CCCn1c(=O)c2[nH]c(-c3ccc(OCc4nc(-c5ccc(F)cc5)no4)cc3)nc2n(CCC)c1=O |  | 
42 nM | 407 nM | 6.4 nM |  | CCCn1c(=O)c2nc(-c3ccc(OCc4nc(-c5cccc(Cl)c5)no4)cc3)[nH]c2n(CCC)c1=O |  | 
207 nM | > 5000 nM | 288 nM |  | CCCn1c(=O)c2[nH]c(-c3ccc(OCc4noc(-c5ccc(C#N)cc5)n4)cc3)nc2n(CCC)c1=O |  | 
250 nM |  | 2190 nM |  | CCCn1c(=O)c2[nH]c(-c3ccc(OCc4noc(-c5ccc(OC)cc5)n4)cc3)nc2n(CCC)c1=O |  | 
1120 nM | > 5000 nM | > 6000 nM |  | CCCn1c(=O)c2nc(-c3ccc(OCc4nc(-c5ccccc5C)no4)cc3)[nH]c2n(CCC)c1=O |  | 
2080 nM | > 5000 nM | > 6000 nM |  | CCCn1c(=O)c2nc(-c3ccc(OCc4noc(-c5cccc(Cl)c5)n4)cc3)[nH]c2n(CCC)c1=O |  | 
> 2000 nM | > 5000 nM | > 6000 nM |  | CCCn1c(=O)c2[nH]c(-c3ccc(OCc4noc(-c5cccc(F)c5)n4)cc3)nc2n(CCC)c1=O |  | 
5830 nM |  |  |  | CCCn1c(=O)c2[nH]c(-c3ccc(OCc4noc(-c5ccccc5Cl)n4)cc3)nc2n(CCC)c1=O |  | 
438 nM | > 15000 nM | > 10000 nM |  | CCCn1c(=O)c2nc(-c3ccc(OCc4noc(-c5ccccc5C)n4)cc3)[nH]c2n(CCC)c1=O |  | 
2780 nM | > 5000 nM | > 6000 nM |  | CCCn1c(=O)c2nc(-c3ccc(OCc4nc(-c5ccc(OC)cc5)no4)cc3)[nH]c2n(CCC)c1=O |  | 
526 nM | > 5000 nM | 643 nM |  | CCCn1c(=O)c2nc(-c3ccc(OCc4nc(-c5ccc(C)cc5)no4)cc3)[nH]c2n(CCC)c1=O |  | 
485 nM | > 5000 nM | 1170 nM |  | CCCn1c(=O)c2[nH]c(-c3ccc(OCc4nc(-c5ccc(C(F)(F)F)cc5)no4)cc3)nc2n(CCC)c1=O |  | 
> 6670 nM | > 5000 nM | > 6000 nM |  | CCCn1c(=O)c2nc(-c3ccc(OCc4nc(-c5cccc(C)c5)no4)cc3)[nH]c2n(CCC)c1=O |  | 
> 2000 nM | > 5000 nM | > 6000 nM |  | CCCn1c(=O)c2nc(-c3ccc(OCc4nc(-c5ccccc5F)no4)cc3)[nH]c2n(CCC)c1=O |  | 

The next lines start with the molecule.

SMILES | Ki (Adenosine receptor A2b [1]) | Ki (Adenosine receptor A2a [2]) | Ki (Adenosine receptor A1) | Ki (Adenosine receptor A2b [3]) | Ki (Adenosine receptor A2b [4]) | Ki (Adenosine receptor A2a [5])
CCCn1c(=O)c2nc(-c3ccc(OCc4nc(-c5ccc(C#N)cc5)no4)cc3)[nH]c2n(CCC)c1=O | 4520 nM | > 5000 nM | > 6000 nM |  |  | 
CCCn1c(=O)c2nc(-c3ccc(OCc4noc(-c5cccc(C(F)(F)F)c5)n4)cc3)[nH]c2n(CCC)c1=O | 1010 nM | > 5000 nM | > 6000 nM |  |  | 
CCCn1c(=O)c2[nH]c(-c3ccc(OCc4nc(-c5cccc(C(F)(F)F)c5)no4)cc3)nc2n(CCC)c1=O | 945 nM | > 5000 nM | > 6000 nM |  |  | 
CCCn1c(=O)c2nc(-c3ccc(OCc4nc(-c5cccc(F)c5)no4)cc3)[nH]c2n(CCC)c1=O | 1450 nM | > 5000 nM | 2010 nM |  |  | 
CCCn1c(=O)c2[nH]c(-c3ccc(OCc4noc(-c5ccc(F)cc5)n4)cc3)nc2n(CCC)c1=O | 220 nM | > 5000 nM | > 6000 nM |  |  | 
CCCn1c(=O)c2nc(-c3ccc(OCc4nc(-c5cccc(OC)c5)no4)cc3)[nH]c2n(CCC)c1=O | 1680 nM | > 5000 nM | > 6000 nM |  |  | 
CCCn1c(=O)c2[nH]c(-c3ccc(OCc4noc(-c5ccccc5OC)n4)cc3)nc2n(CCC)c1=O | 127 nM | 2940 nM | 1160 nM |  | 127 nM | 23 nM
CCCn1c(=O)c2nc(-c3ccc(OCc4nc(-c5ccccc5C(F)(F)F)no4)cc3)[nH]c2n(CCC)c1=O | 325 nM | 3140 nM | 473 nM |  |  | 
CCCn1c(=O)c2[nH]c(-c3ccc(OCc4nc(-c5ccc(Cl)cc5)no4)cc3)nc2n(CCC)c1=O | 5170 nM |  |  |  |  | 
CCCn1c(=O)c2nc(-c3ccc(OCc4noc(-c5ccccc5F)n4)cc3)[nH]c2n(CCC)c1=O | 645 nM |  |  |  |  | 
CCCn1c(=O)c2nc(-c3ccc(OCc4noc(-c5ccc(C(F)(F)F)cc5)n4)cc3)[nH]c2n(CCC)c1=O | 255 nM | 4910 nM | 5180 nM |  |  | 
CCCn1c(=O)c2[nH]c(-c3ccc(OCc4nc(-c5ccccc5OC)no4)cc3)nc2n(CCC)c1=O | 557 nM | > 5000 nM | > 6000 nM |  |  | 
CCCn1c(=O)c2nc(-c3ccc(OCc4noc(-c5ccc(Cl)cc5)n4)cc3)[nH]c2n(CCC)c1=O | 3660 nM |  |  |  |  | 
CCCn1c(=O)c2nc(-c3ccc(OCc4noc(-c5ccc(C)cc5)n4)cc3)[nH]c2n(CCC)c1=O | 91 nM | 1010 nM | 113 nM |  |  | 
CCCn1c(=O)c2[nH]c(-c3ccc(OCc4noc(-c5cccc(C)c5)n4)cc3)nc2n(CCC)c1=O | 700 nM |  |  |  |  | 

Source: ChEMBL document CHEMBL1140281, “The discovery of a selective, high affinity A(2B) adenosine receptor antagonist for the potential treatment of asthma” (Bioorg Med Chem Lett, 2005)
